# Measurements as given in publication PMC6680510, “Benzotriazine Di-Oxide Prodrugs for Exploiting Hypoxia and Low Extracellular pH in Tumors” (Molecules, 2019).
# Values joined by “and” are separate entries in the source; they are usually repeats but may differ in a detail not shown here. Equal entries are not always repeated.
# Experiments:
# [1] = system: MDCK-II cells with forced expression of BCRP or Pgp; assay: IC50 under anoxia in cells with forced expression of efflux transporters; settings: MDCK-II cell lines under anoxia, preliminary experiments
# Method: expression of BCRP or Pgp.
# Cells were seeded at 300 cells/well in DMEM with 10% FBS in 96 well plates in an
# anaerobic chamber, allowed to attach for 2 h then exposed to drugs for 4 h under anoxia. Cells were
# then washed with fresh medium and grown for 5 days under aerobic conditions before staining with
# SRB. Values are mean ± SEM from 2 separate experiments.
# [2] = One-electron reduction potentials by pulse radiolysis; type: physicochemical; settings: pH 7.0, equilibrium with redox indicator shown in square brackets
# Outline: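 Redox equilibria at pH 7.0 (2.5 mM phosphate) established within 50 μs between one-electron reduced compound and viologen references MV^2+, TQ^2+ or V21^2+, generated by 4 MeV linac pulse radiolysis with time-resolved optical absorption. E^0′ vs NHE derived via Nernst equation from equilibrium constants, corrected for ionic strength.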
# SiHa cells = assay: IC50 assay modified for chronic hypoxia (oxia, hypoxia, anoxia); type: cell-based; settings: for IC50: Homo sapiens
# Method: There are relatively few viable cells in tumors at O2 concentrations as low as in the above anoxic experiments. In addition, extensive changes in gene expression occur under chronic exposure to intermediate O2 concentrations (chronic hypoxia), including the expression of proteins that regulate pHi. […] Therefore, oxic and anoxic exposures were also tested in these same experiments. The 24 h adaptation to hypoxia had little effect on the subsequent growth of the cultures at either pHe value (Figure S6).
# To minimize problems with poor cell attachment under chronic hypoxia, the drugs were added from a 3-fold dilution series made in a separate plate, rather than by serial dilution in the plates containing the cells. In addition, the drugs were removed after the 4 h exposure by centrifuging the plates (200g × 5 min) prior to each aspiration. The same modifications were used for the oxic drug exposures in these experiments.
smiles,measurement,setting,value
"O=C(O)CCc1n[n+]([O-])c2ccccc2[n+]1[O-] [Compound 4a, 3-(2-Carboxyethyl)benzo[e][1,2,4]triazine 1,4-Dioxide]",Effect of overexpression of BCRP or Pgp efflux transporters on sensitivity,[1],no effect
same,E^0′ one-electron reduction potential,[2],−399 mV and −399 ± 7 [MV^2+] mV
same,PCR (IC50 for pHe 7.4/IC50 for pHe 6.5),SiHa cells; 0.2% O2,1.39 ± 0.19
same,PCR (IC50 for pHe 7.4/IC50 for pHe 6.5),SiHa cells; 20% O2,1.98 ± 0.93
same,PCR (IC50 for pHe 7.4/IC50 for pHe 6.5),SiHa cells; <0.01% O2,1.86 ± 0.59
same,IC50,"SiHa cells; 0.2% O2 (24 h before and during 4 h exposure), pHe 6.5",308 ± 1 µM
same,IC50,"SiHa cells; 0.2% O2 (24 h before and during 4 h exposure), pHe 7.4",428 ± 57 µM
same,IC50,"SiHa cells; 4 h, 20% O2, pHe 6.5, 4 h",707 ± 321 µM
same,IC50,"SiHa cells; 4 h, 20% O2, pHe 7.4, 4 h",1400 ± 162 µM
same,IC50,"SiHa cells; 4 h, <0.01% O2, pHe 6.5, 4 h",160 ± 45 µM
same,IC50,"SiHa cells; 4 h, <0.01% O2, pHe 7.4, 4 h",298 ± 44 µM
same,ACR (IC50 for 20% O2/IC50 for <0.01% O2),SiHa cells; pHe 6.5,4.42 ± 2.36
same,HCR (IC50 for 20% O2/IC50 for 0.2% O2),SiHa cells; pHe 6.5,2.30 ± 1.04
same,ACR (IC50 for 20% O2/IC50 for <0.01% O2),SiHa cells; pHe 7.4,4.70 ± 0.88
same,HCR (IC50 for 20% O2/IC50 for 0.2% O2),SiHa cells; pHe 7.4,3.28 ± 0.58
